Results as given in article PMC7551886, “Antitumour Effects of Astaxanthin and Adonixanthin on Glioblastoma” (Marine Drugs, 2020).

Columns and labels:
Assay type in all cases: cell-based, mouse
[1] = tested on: p27; assay: Immunoblotting, p27 expression in GL261; conditions: GL261, 300 µM temozolomide, 48 h
Experimental: (§1) GL261 cell was seeded at 2.5 × 10^4 cells per well in 24-well plates with culture medium supplemented with 10% FBS. After 24 h of incubation, the medium was changed to DMEM containing 10% FBS and 0.1%DMSO PBS, 300 μM temozolomide, 10 μM astaxanthin, or 10 μM adonixanthin was added for 6 and 48 h. Cells were lysed in a special buffer (RIPA buffer R0278; Sigma-Aldrich, St. Louis, MO, USA) with a protease inhibitor cocktail (Sigma-Aldrich), phosphatase inhibitor cocktails 2 and 3 (Sigma-Aldrich), and sample buffer (Wako, Osaka, Japan). The protein concentration was determined by comparison with a known concentration of bovine serum albumin using the BCA Protein Assay Kit (Thermo Fisher Scientific). The amount of total protein was 2 μg. Equal amounts of protein in sample buffer containing 10% 2-mercaptoethanol were subjected to sodium dodecyl sulphate polyacrylamide gel electrophoresis (SDS-PAGE) in 5-20% gradient gels (SuperSep Ace; Wako), and the separated proteins were transferred to polyvinylidene difluoride membrane (Immobilon-P; Merck Millipore Corporation, Bedford, MA, USA). After blocking for 30 min with Blocking One-P (Nacalai Tesque), we incubated the membranes with primary antibodies overnight at 4 °C. […] The band intensity was […] an Immuno Star LD (Wako). Band intensity was measured using an LAS-4000 UV mini Luminescent Image Analyzer (Fujifilm, Tokyo Japan) and Multi Gauge Version 3.0 (Fujifilm). The phosphorylation of ERK1/2, Akt, and p38 MAPK was measured by normalizing against total ERK1/2, total Akt, and total p38 MAPK. […]

[2] = tested on: Bcl-2; assay: Immunoblotting, Bcl-2 expression in GL261; conditions: GL261, 300 µM, 48 h
Experimental: as §1

[3] = tested on: GL261 cells; assay: BrdU cell proliferation assay; conditions: GL261, temozolomide group (concentration not printed for this test); control group 60.56 ± 1.40%
Experimental: GL261 cells were seeded onto 96-well plates at a density of 2 × 10^3 cells/well with DMEM supplemented with 10% FBS and then incubated for 24 h, after which the culture medium was changed to DMEM containing 10% FBS. Then, astaxanthin, adonixanthin, or temozolomide (Tokyo Chemical Industry Co., Ltd., Tokyo, Japan) were added to the culture. After 72 h of culture, the culture medium was changed to DMEM containing 10% FBS and treated with BrdU at 10 µM for 3 h. After that, immunocytochemistry was performed according to the protocol of anti-BrdU antibody (abcam, ab6326).

SMILES: Cn1nnc2c(C(N)=O)ncn2c1=O [temozolomide, reference compound]
- expression of p27 [1]: significantly reduced
- expression of Bcl-2 vs. control [2]: N.S.
- BrdU-positive cell rate [3]: 19.17 ± 1.77%
